Assay results reported in US20220202852A1, “METHODS AND COMPOSITIONS OF AQUEOUS HYPOBROMOUS ACID FOR THE TREATMENT AND PREVENTION OF INFLAMMATORY CONDITIONS” (Briotech, Inc., priority 2020, published 2022).

Experiments:
[1] = test system: spores of Bacillus subtilis; test: Inactivation of resistant spores by HOBr/HOCl solutions; format: cell-based; conditions: 20 seconds contact
Method: Hypobromous acid (HOBr) was prepared by the exposure of a slight excess of one equivalent of aqueous bromide ion (as NaBr) to one equivalent of HOCl. This solution was prepared fresh for use in tests for inactivation of resistant microbial organisms.
Exposures as brief as 20 seconds to HOBr at approximately 25 ppm were sufficient to produce LRV of 6. In the same experimental protocol HOC1 at 230 ppm was required to produce 6 LRV in the same contact time. As soon as the HOCl concentration used was below 230 ppm, the LRVs fell into the 2-4 range.

E. coli = test: Comparative antimicrobial efficacy of HOBr and HOCl solutions vs suspensions; format: cell-based; conditions: 20 s exposure
Method: (§1) FIGS. 3A-3C compare antimicrobial efficacy comparison of HOBr and HOCl solutions: E. coli, 20 s exposure (3A); S. aureus, 40 s exposure (3B); and A. niger, 40 s exposure (3C). HOBr=diagonal lines; HOCl=stippling.
(§2) Preparations of HOCl stored at 22° C. for several weeks and freshly prepared HOBr solutions were compared in their antimicrobial properties versus suspensions of E. coli, S. aureus, and A. niger (see FIG. 3).

S. aureus = test: as above; format: cell-based; conditions: 40 s exposure
Method: as §1, §2

[2] = test system: human skin and mucous membranes, including conjunctiva; test: Safety of topically applied freshly prepared aqueous HOBr; format: in vivo; conditions: HOBr solution made from HOCl containing 200 ppm of Cl plus an equivalent of NaBr
From the text: A solution of HOBr was made by addition of an equivalent of NaBr to a solution of HOCl containing 200 ppm of Cl.

A. niger = test: Comparative antimicrobial efficacy of HOBr and HOCl solutions vs suspensions; format: cell-based; conditions: all concentrations tested, 40 s exposure
Method: as §1, §2

[3] = lower concentrations (<115 ppm)

Row | Structure (SMILES) | LRV, inactivation of Bacillus subtilis spores ([1]; approximately 25 ppm) | inactivating E. coli, comparative efficacy (E. coli; high concentrations (≥115 ppm)) | inactivating E. coli, comparative efficacy (E. coli; [3]) | inactivating S. aureus, comparative efficacy (S. aureus; high concentrations (≥115 ppm)) | inactivating S. aureus, comparative efficacy (S. aureus; [3]) | adverse effects on epithelial surfaces after topical application [2] | LRV, inactivation of Bacillus subtilis spores ([1]; 230 ppm) | LRV, inactivation of Bacillus subtilis spores ([1]; concentration below 230 ppm) | efficacy against A. niger, comparative (A. niger)
1 | OBr [HOBr, Hypobromous acid] | 6 | equally effective | markedly more effective than HOCl | equally effective | markedly more effective than HOCl | without any indication of adverse effects |  |  | 
2 | OCl [HOCl, hypochlorous acid] | no detectable effect | equally effective |  | equally effective |  |  | 6 | 2-4 | equally or more effective than HOBr
